Laboratory results published in PMC12488667, “Orodispersible films containing chestnut shell phenolics for buccal delivery: a preclinical approach for oral mucositis prevention” (Frontiers in Medical Technology, 2025).
Values joined by “and” are separate entries in the source; they are usually repeats but may differ in a detail not shown here. Equal entries are not always repeated. Where two headings read alike, the source gives them in different places. Marks after values point to notes of the source that are not given here.

Legend:
[1] = Ex vivo permeation, Franz cells; assay type: in vitro ADME, porcine
Method: Porcine buccal mucosa was used to evaluate the buccal permeation of the phenolic compounds in the extract and the CS-loaded OFs (n = 9). The porcine buccal mucosa was purchased in a local butcher shop, not requiring ethical approval. A Franz cell assembly (9 mm clear jacketed Franz cell with a flat ground joint, 5 ml receptor volume, and permeation area of 0.785 cm^2; PermeGear, Inc., USA) was used. This experiment followed the methodology described by Rodrigues et al. ([32]). In the Franz apparatus, the porcine buccal mucosa was positioned with the cheek side facing the donor chamber, which contained 500 µl (1,000 μg/ml) of the CS extract or the CS-loaded OFs (two square films (2 × 2 cm) with […] of thickness were dissolved in 4 ml of artificial saliva; donor concentration was normalized to ensure equivalence between the extract solution and the film formulation). The receptor chamber was filled with 5 ml PBS, maintained at 37°C, and stirred continuously at 150 rpm. The volume was maintained through the experiments.
(§1) The identification and quantification of the phenolic compounds present in the extract and the OFs, as well as the compounds that permeated from the OFs through in vitro and ex vivo assays, were conducted using an LC-ESI-LTQ-Orbitrap-HRMS equipment with an Accela chromatograph (Thermo Scientific, Hemel Hempstead, UK), a photodiode array detector, a quaternary pump, and a temperature-controlled autosampler coupled to a high-resolution LTQ Orbitrap Velos mass spectrometer (Thermo Scientific, Hemel Hempstead, UK) with an ESI source in negative mode ([33], [34]). The system was controlled using the Xcalibur v3.0 software (ThermoFisher Scientific, Hemel Hempstead, UK). Elution was performed on an Acquity™ UPLC® BEH C18 Column (2.1 × 100 mm, i.d., 1.7 µm particle size, Waters Corporation, Wexford, Ireland) maintained at 30°C.
(§2) Gradient elution was performed with water (A) and acetonitrile (B), both with 0.1% formic acid, with a flow rate and injection volume of 450 µl/min and 5 µl, respectively. The solvent gradient (v/v) of B [t (min), %B] was set as follows: (0, 0), (2, 0), (4, 30), (8, 100), (10, 100), (11, 0), and (14, 0). The samples were analyzed in the full scan mode at a resolving power of 30,000 and m/z 600. Data-dependent MS/MS events were acquired at a resolution of 15,000. Most intense ions were detected via the FTMS mode-triggered data-dependent acquisition mode. Ions that were not sufficiently intense for a data-dependent scan were explored in MSn mode. Precursors were fragmented by collision-induced dissociation using a C-trap with a normalized collision energy (35 V) and an activation time of 10 ms. […] Compounds whose theoretical [M–H]^− values exceeded the MS¹ acquisition range (m/z 100–600) were annotated based on characteristic MSⁿ fragment ions detected within the scan window.
Quantitative analysis was performed by using a validated chromatographic method ([38]).

TR146 cells = test: In vitro permeation, buccal model; assay type: in vitro ADME, human
Method: The in vitro permeability of the bioactive compounds present in OFs (n = 9) was determined using a co-culture model composed of TR146 ([31]). The extract and the CS-loaded OFs were added to the apical side of the model as a stock solution. […] The Transepithelial Electrical Resistance (TEER) of the model was evaluated before, during, and at the end of the permeability assay using an EVOM Epithelial Volthometer equipped with a chopstick electrode (World Precision Instruments, Sarasota, FL, USA).
as §1, §2

Q: For O=C(CCc1ccc(O)cc1)c1c(O)cc(O)cc1O[C@@H]1O[C@H](CO)[C@@H](O)[C@H](O)[C@H]1O [Phlorizin], which “Quantification of permeated compounds” value ([1]; CS extract) is on record?
A: 1.93± 0.06^a mg/ml

Q: And the “Quantification of permeated compounds” value ([1]; CS-loaded OFs)?
A: 0.87 ± 0.06^a mg/g film

Q: And the “Permeation (%)” value ([1]; from CS extract, 15 min)?
A: 18.69 ± 0.04^a %

Q: What about the “Permeation (%)” value ([1]; from CS extract, 30 min) of the same molecule?
A: 17.60 ± 0.30^a %

Q: Which “Quantification of permeated compounds” value ([1]; CS extract) does the source give for O=C(O)CCCCC(=O)O [Adipic acid] here?
A: 93.48 ± 2.39^b mg/ml

Q: What about the “Quantification of permeated compounds” value ([1]; CS-loaded OFs) of the same molecule?
A: 11.84 ± 2.11^a mg/g film

Q: What about the “Permeation (%)” value ([1]; from CS extract, 15 min) of the same molecule?
A: 11.41 ± 0.03^a %

Q: What about the “Permeation (%)” value ([1]; from CS extract, 30 min) of the same molecule?
A: 9.47 ± 0.07^a %

Q: And the “Permeation (%)” value ([1]; from CS-loaded OFs, 15 min)?
A: 98.93 ± 2.05^b %

Q: And the “Permeation (%)” value ([1]; from CS-loaded OFs, 30 min)?
A: 97.59 ± 2.36^b %

Q: For COc1cc(C[C@@H](CO)[C@H](CO)Cc2ccc(O)c(OC)c2)ccc1O [Secoisolariciresinol], which “Permeation (%)” value (TR146 cells) is on record?
A: 22.32 ± 0.12^a %

Q: For COC(=O)c1cc(O)c(O)c(O)c1 [Methyl gallate], which “Quantification of permeated compounds” value (TR146 cells; CS extract) is on record?
A: 0.37 ± 0.01^a mg/ml

Q: What about the “Quantification of permeated compounds” value (TR146 cells; CS-loaded OFs) of the same molecule?
A: 0.37 ± 0.03^a mg/g film

Q: And the “Permeation (%)” value (TR146 cells; from CS extract, 15 min)?
A: 37.24 ± 0.04^a %

Q: For O=c1[nH]c(=O)c2[nH]cnc2[nH]1 [Xanthine], which “Permeation (%)” value ([1]; pig, 15 min, 1000 μg/ml) is on record?
A: 6.94 ± 0.02^a %

Q: And the “Permeation (%)” value ([1]; pig, 30 min, 1000 μg/ml)?
A: 6.48 ± 0.02^a %

Q: What does the source list for O=C1CC[C@@H](C(=O)O)N1 [Pyroglutamic acid]?
A: Quantification of permeated compounds (TR146 cells; CS extract): 41.32 ± 2.63^b mg/ml; Quantification of permeated compounds (TR146 cells; CS-loaded OFs): 28.93 ± 1.88^a mg/g film; Permeation (%) (TR146 cells; from CS extract, 15 min): 13.92 ± 0.12^a %; Permeation (%) (TR146 cells; from CS extract, 30 min): 15.39 ± 1.05^a %; Permeation (%) (TR146 cells; from CS extract, 45 min): 18.22 ± 1.41^b %; Permeation (%) (TR146 cells; from CS extract, 60 min): 23.34 ± 0.88^b %; Permeation (%) (TR146 cells; from CS extract, 90 min): 22.87 ± 1.52^b %; Permeation (%) (TR146 cells; from CS extract, 120 min): 23.68 ± 1.84^b %; Permeation (%) (TR146 cells; from CS extract, 180 min): 21.35 ± 0.97^b %; Permeation (%) (TR146 cells; from CS extract, 240 min): 28.47 ± 2.52^b %; Permeation (%) (TR146 cells; from CS-loaded OFs, 15 min): 17.03 ± 0.23^a %; Permeation (%) (TR146 cells; from CS-loaded OFs, 30 min): 39.63 ± 0.24^a^,^b %; Permeation (%) (TR146 cells; from CS-loaded OFs, 45 min): 43.32 ± 1.12^a^,^b %; Permeation (%) (TR146 cells; from CS-loaded OFs, 60 min): 46.32 ± 2.65^a^,^b %; Permeation (%) (TR146 cells; from CS-loaded OFs, 90 min): 65.40 ± 0.82^b %; Permeation (%) (TR146 cells; from CS-loaded OFs, 120 min): 66.95 ± 3.71^b %; Permeation (%) (TR146 cells; from CS-loaded OFs, 180 min): 103.24 ± 2.71^c %; Permeation (%) (TR146 cells; from CS-loaded OFs, 240 min): 111.34% and 111.34 ± 1.62^c %

Q: With O=c1oc2c(O)c(O)cc3c(=O)oc4c(O)c(O)cc1c4c23 [Ellagic acid] as the molecule, how does the “Quantification of permeated compounds” value ([1]; CS extract) read?
A: 7.15 ± 2.50^b mg/ml

Q: What about the “Quantification of permeated compounds” value ([1]; CS-loaded OFs) of the same molecule?
A: 1.27 ± 0.05^a mg/g film

Q: What about the “Permeation (%)” value ([1]; from CS extract, 15 min) of the same molecule?
A: 10.61 ± 0.08^a %

Q: And the “Permeation (%)” value ([1]; from CS extract, 30 min)?
A: 6.26% and 6.26 ± 0.75^a %

Q: What about the “Permeation (%)” value ([1]; from CS-loaded OFs, 15 min) of the same molecule?
A: 35.46 ± 0.32^b %

Q: And the “Permeation (%)” value ([1]; from CS-loaded OFs, 30 min)?
A: 60.75% and 60.75 ± 1.62^c %

Q: For COc1cc(-c2oc3cc(O)cc(O)c3c(=O)c2O)ccc1O [Isorhamnetin], which “Quantification of permeated compounds” value (TR146 cells; CS extract) is on record?
A: 0.38 ± 0.04^a mg/ml

Q: What about the “Quantification of permeated compounds” value (TR146 cells; CS-loaded OFs) of the same molecule?
A: 0.38 ± 0.01^a mg/g film

Q: And the “Permeation (%)” value (TR146 cells; from CS extract, 15 min)?
A: 99.26 ± 2.34^a %

Q: And the “Permeation (%)” value (TR146 cells; from CS extract, 30 min)?
A: 99.73 ± 1.83^a %

Q: What about the “Permeation (%)” value (TR146 cells; from CS extract, 45 min) of the same molecule?
A: 98.36 ± 3.74^a %

Q: And the “Permeation (%)” value (TR146 cells; from CS extract, 60 min)?
A: 99.10 ± 2.96^a %

Q: What about the “Permeation (%)” value (TR146 cells; from CS extract, 90 min) of the same molecule?
A: 99.00 ± 4.70^a %

Q: What about the “Permeation (%)” value (TR146 cells; from CS extract, 120 min) of the same molecule?
A: 98.36 ± 1.07^a %

Q: What about the “Permeation (%)” value (TR146 cells; from CS extract, 180 min) of the same molecule?
A: 99.08 ± 2.69^a %

Q: What about the “Permeation (%)” value (TR146 cells; from CS extract, 240 min) of the same molecule?
A: 98.36 ± 1.91^a %

Q: And the “Permeation (%)” value (TR146 cells; from CS extract, 240 min, listed as isorhamnetin)?
A: 98.36%

Q: What about the “Permeation (%)” value (TR146 cells; from CS-loaded OFs, 15 min) of the same molecule?
A: 105.62 ± 3.71^a %

Q: What about the “Permeation (%)” value (TR146 cells; from CS-loaded OFs, 30 min) of the same molecule?
A: 105.51 ± 3.25^a %

Q: What about the “Permeation (%)” value (TR146 cells; from CS-loaded OFs, 45 min) of the same molecule?
A: 105.05 ± 2.24^a %

Q: And the “Permeation (%)” value (TR146 cells; from CS-loaded OFs, 60 min)?
A: 101.34 ± 2.95^a %

Q: What about the “Permeation (%)” value (TR146 cells; from CS-loaded OFs, 90 min) of the same molecule?
A: 98.29 ± 2.14^a %

Q: And the “Permeation (%)” value (TR146 cells; from CS-loaded OFs, 120 min)?
A: 99.38 ± 1.47^a %

Q: What about the “Permeation (%)” value (TR146 cells; from CS-loaded OFs, 180 min) of the same molecule?
A: 98.29 ± 1.94^a %

Q: And the “Permeation (%)” value (TR146 cells; from CS-loaded OFs, 240 min)?
A: 100.20 ± 3.56^a %

Q: And the “Permeation (%)” value (TR146 cells; from CS-loaded OFs, 240 min, listed as isorhamnetin)?
A: 100.20%

Q: For O=c1c(O[C@@H]2O[C@H](CO)[C@H](O)[C@H](O)[C@H]2O)c(-c2ccc(O)c(O)c2)oc2cc(O)cc(O)c12 [Quercetin 3-O-galactoside], which “Quantification of permeated compounds” value (TR146 cells; CS extract) is on record?
A: 0.36 ± 0.01^a mg/ml

Q: And the “Quantification of permeated compounds” value (TR146 cells; CS-loaded OFs)?
A: 0.36 ± 0.01^a mg/g film

Q: And the “Permeation (%)” value (TR146 cells; from CS extract, 60 min)?
A: 49.94 ± 0.98^a %
